According to patent publication US11980774B2, “Illumination devices and related methods for phototherapeutic light treatments in the presence of vitamins” (priority 2021, dated 2024):

System: South African variant of SARS-CoV-2 (SARS-CoV-2 SA)
Format: cell-based
Conditions: 10 μM RFN, no ascorbate; 425 nm light 7.5 J/cm^2; FIG. 3B

For `Cc1cc2nc3c(=O)[nH]c(=O)nc-3n(C[C@H](O)[C@H](O)[C@H](O)CO)c2cc1C` [riboflavin], the “fold reduction in viral loads of SARS-CoV-2 SA” value was 642 fold, the “reduction in viral loads of SARS-CoV-2 SA” value was about 99.8% and the “reductions in viral loads of SARS-CoV-2 SA” value was “significant reductions”.
